Test [1] has as its system Glutag and NCI-H761 cells. The experiment in a line: Dose response of GLP-1 release at different glucose concentrations. In kind it is cell-based. As to the method: Panels A and B show results of dose response of GLP-1 release in different glucose concentration of 5 mM (panel A) and 10 mM (panel B). The dose response of GLP-1 released was normalised of number of cells measured in parallel. Glutag and […] cells were incubated with vehicle alone, oleoyl-LPI, OEA, LPC forskolin (10 μM) and PMA (1 μM) as positive control for 2 hours. Results were normalised as percentage of cell treated with vehicle (control). For panels A and B data are shown as means±SEM of n=3 from independent experiments performed in duplicates. Student t-test: *p<0.05, **P<0.01. Panel C show results of dose response of GLP-1 release in a glucose concentration of 20 mM.
(§1) Approximately 80,000 Glutag cells were plated in poly-L-lysine-coated 24-well culture plates and grown to about 80% confluence. NCI-H716 cells were seeded on growth factor reduced Matrigel™ (Becton Dickinson, Bedford, MA) in DMEM medium, supplemented with 10% FBS the day before the experiment. For NCI-H716 cells, approximately 25,000 cells were needed for this secretion experiment in order to have good stimulation with lower basal GLP-1 secretion. In brief, Glutag and NCI-H716 cells were washed twice and then incubated for 2 h with FBS-free DMEM containing 1% (M:C) alone (negative control), 10 μM forskolin as positive control (Sigma-Aldrich), or with different concentrations of Oleoyl-LPI. M:C was used as a solvent to prepare stock solutions of fatty acid derivatives and inhibitors. For secretion experiments, medium and cells were collected separately.
To determine the effect of glucose in oleoyl-LPI induced GLP-1 secretion, the inventors conducted dose-response experiment in the presence of 5 mM and 10 mM glucose in the secretion medium with the results outlined in FIG. 2A and FIG. 2B.

The next test concerns the target T1, human GPR119 (Homo sapiens, UniProt Q8TDV5).
T1 construct: expressed in transfected cells; host or cells: COS-7 cells, calcium phosphate transfection
T1 sequence (Q8TDV5 1-335): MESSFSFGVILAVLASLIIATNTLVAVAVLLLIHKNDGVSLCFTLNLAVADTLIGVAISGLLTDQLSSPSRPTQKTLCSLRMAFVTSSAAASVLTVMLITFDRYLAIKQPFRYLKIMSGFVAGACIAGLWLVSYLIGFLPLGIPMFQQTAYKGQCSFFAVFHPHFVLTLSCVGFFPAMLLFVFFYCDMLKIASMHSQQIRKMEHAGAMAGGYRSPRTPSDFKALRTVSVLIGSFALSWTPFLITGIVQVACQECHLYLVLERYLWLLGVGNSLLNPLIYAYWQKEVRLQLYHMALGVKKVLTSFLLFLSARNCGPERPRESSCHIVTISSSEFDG
Put plainly: cAMP assay in GPR119 transfected COS-7 cells. As to conditions: COS-7 cells expressing human GPR119, agonists 30 min; read-out: EC50, production of cAMP. It is filed as cell-based. As to the method:
COS-7 cells were cultured in Dulbecco's modified Eagle medium (DMEM) 1885 supplemented with 10% FBS, […] L-glutamine and 180 IU/ml penicillin+[…] streptomycin (Pen Strep) (Life Technologies, CA, USA) at 37° C. and 10% CO2. The COS-7 cells were transiently transfected with GPR119 or pcDNA by the calcium phosphate transfection method for 5 hours in 37° C., 10% CO2 as described by Kissow H, Hartmann B, Hoist J J, Viby N E, Hansen L S, Rosenkilde M M, Hare K J, Poulsen S S. Regul Pept. 2012. Vol: 179(1-3), pp 91-100; the disclosure of which is incorporated herein in its entirety by way of reference.
COS-7 cells were transfected with about 40 μg GPR119 DNA or pcDNA3 per […] flask. One day after transfection, the cells were seeded out (about 35,000 cell/well) in a 96 well white plate (Perkin Elmer, Massachusetts, USA). The cells were washed twice the following day and incubated for 30 min, at 37° C. with HBS and 1 mM IBMX (Sigma Aldrich, USA). Agonists were added for 30 min in the assay medium. The Hithunter® cAMP XS+ (DiscoveRx, Fremont, USA) was carried out by following the manufacturer's instructions.
Accordingly, the work outlined in this example evaluates whether activation of GPR119 by oleoyl-LPI in enteroendocrine L cell affect the proglucagon gene expression by monitoring the CREB activity. […]

The test system of test [2] is colonic cells of the GI tract obtained from guinea pig. The experiment in a line: Ex vivo GLP-1 biosynthesis and secretion, guinea pig GI tract cells. In kind it is cell-based. As to conditions: Cavia porcellus; ex vivo incubation 2 hours, quadruplicates. As for the experimental part:
To test for this, a pregnant guinea pig was anesthetized with isoflurane and sacrificed via intra-cardial injection of pentobarbital. Colon and rectum were quickly collected and intraluminal content washed out with ice-cold HBSS. After a thorough cleansing from the faecal material, and gentle scraping of the internal mucosa, the tissue was minced into 3 to 5-millimetre pieces and resuspended into 50 ml of ice cold HBSS. Pellet was spun down and washed again in 50 ml of ice-cold HBSS. Supernatant was carefully removed, and the epithelial fragments were then resuspended for 30 minutes at 37° C. into a 5 ml solution of HEPES 25 mM, collagenase-P 1 mg/ml in HBSS, pH 7.4 at 37° C.
The tissue was then pelleted and resuspended further for about 30 to 40 additional minutes at 37° C. within a 10 ml solution of 1 mg/ml collagenase-P as above.
After the digestion, about 40 ml of pre-warmed DMEM complete media was added (FBS 10%, glucose 4.5 g/L, glutamine 4 mM, sodium pyruvate 1 mM, HEPES 25 mM, sodium bicarbonate 3.7 g/L, Pen/Strep 1× and Ciprofloxacin 10 μg/ml pH 7.4 at 37° C.). Crypts and individual cells were isolated with a […] nylon strainer, spun down at 200 g for 5 minutes, resuspended into 10 ml of DMEM complete media and plated into 20 wells of a 24-well plate coated with a 3D gel of 3 mg/ml Matrigel (BD, Biosciences, Oxford, UK). After one day of incubation at 37° C. 5% CO2 in a humidified incubator, cells were washed with 500 μl of warm HBSS, and treated with 250 μl DMEM serum free (Complete medium without FBS) additioned with KR-62436 10 μg/ml and individually the following drugs or compounds: Forskolin and IBMX (20 μM each), oleoyl-LPI, and the two oleoyl-LPI analogs and/or derivatives ps297b (prepared as described in example 13) and ps316a (prepared as described in example 22) were all tested in quadruplicate at 20 μM.
After a 2-hour long incubation at 37 C 5% CO2, the supernatants were collected on ice, and quickly stored at […]. Active GLP-1 levels (7-37 amide and 7-36) were quantified on 50 μl of supernatant with an ELISA commercial kit (EMD Millipore). DMSO was used as a negative control, the combination of Forskolin and IBMX was included as positive control activators GLP-1. GLP-1 levels measured were standardized against the DMSO control.
The EC50 levels each one of oleoyl-LPI, compound ps297b and compound ps316a were also measured in quadruplicates at the conclusion of the 2 hour incubation. Guinea pig cells obtained as described above were also incubated with […] in quadruplicates and subjected to 2-hour long incubation at 37 C 5% CO2 as described above and EC50 levels measured.

A further test relates to CREB. Put plainly: CREB phosphorylation by Western blot. In kind it is cell-based. As to conditions: H89 10 μM pre-treatment or oleoyl-LPI in control cells. As to the method:
When cell cultures reached 80-90%, media were removed and cells were washed twice with 1×PBS. The cells were lysed in 150 μl (for one well of a 6 well plate) of Triton X-100 lysis buffer, containing phosphatase inhibitor cocktail (1:1000) (Sigma Aldrich, UK) and protease inhibitor (1:1000, Sigma Aldrich, UK). Cells were detached with scrapers and lysate were collected and centrifuged at 10,000 rpm, 4° C. for 5 minutes. The supernatant was then transferred to a 1.5 ml microcentrifuge tube and used for protein quantification. Cell lysates were stored at −20° C. for longer storage. All lysates were prepared on ice.
Non-specific antibody binding was prevented by incubating the nitrocellulose membrane in 5% milk in PBS-0.05% Tween-20 (v/v) for 30 minutes on a rotating plate. The membrane was then washed in PBS-0.05% Tween-20 (v/v) and then incubated with the primary antibody diluted in PBS-0.05% Tween-20 (v/v) on a rotating plate overnight at 4° C. After 24 hours, the membrane was washed 5× for 5 minutes with PBS-0.05% Tween-20 (v/v), and then incubated on a rotating plate with the appropriate secondary antibody for 1 hour at room temperature. […]

Another test deals with NCI-H716 cells. The experiment in a line: GLP-1 secretion by NCI-H716 cells (Examples 2-8). The conditions noted are these: NCI-H716 cells, inhibitor 1 hour before oleoyl-LPI (PD98059 50 μM; H89 10 μM). It is filed as cell-based, human. As to the method:
NCI-H716 cells were maintained in 75 cm^2 tissue culture flasks (Corning) in RPMI 1640 media containing 2.0 mM L-glutamine, 1.5 g/L sodium bicarbonate, 10 mM HEPES buffer, 1.0 mM sodium pyruvate, and 4.5 g/L glucose and supplemented with 10% FBS at a 37° C. and 5% CO2. When plating for experiment, cell adhesion and endocrine differentiation were initiated by growing cells in dishes coated with growth factor reduced Matrigel diluted at the ratio of 1:2 (Becton Dickinson, Bedford, MA) in high-glucose DMEM, 10% FBS, 2 mM glutamine, 100 IU/ml penicillin, and 100 μg/ml streptomycin as described previously by De Bruine, a P., Dinjens, W. N., van der Linden, E. P., Pijls, M. M., Moerkerk, P. T., & Bosman, F. T. (1993) The American Journal of Pathology, Vol 142(3), pp 773-782, the disclosure of which is incorporated herein in its entirety by reference.
as §1
(§2) In separate studies, GLUTag or NCI-H716 cells were pre-treated for 1 hour with medium alone (1% DMSO, negative control), PD98059 (50 μM; Sigma Chemical Co.), H89 (10 μM; Santa Cruz) followed by treatment with oleoyl-LPI (20 μM), OEA (10 μM), AR231453(1 μM), PMA (10 μM) or forskolin (10 μM, positive control) in the presence of inhibitors, as appropriate, for about 2 h. Medium GLP-1 secretion was calculated as total GLP-1 content of medium normalised for the basal secretion of the control.
(§3) In order to investigate the role of different LPI species in enteroendocrine cells, murine (Glutag) and human (NCI-H716) L-cells were stimulated with the following different species of LPI: Arachidonyl-LPI, Stearoyl-LPI, Heptadecenoyl-LPI and oleoyl-LPI, as well as with OEA and LPC. Experiments were performed in duplicate, n=4 and the level of total GLP-1 was measured by ELISA.

For the next test, the system named is Glutag cells. The experiment in a line: GLP-1 secretion by Glutag cells. In kind it is cell-based, murine. As to conditions: Glutag cells, inhibitor 1 hour before oleoyl-LPI (PD98059 50 μM; H89 10 μM). As for the experimental part:
Glutag cells were maintained in low glucose DMEM (Sigma) (1 g/L) containing 2.0 mM L-glutamine, 1.0 mM sodium pyruvate and supplemented with 10% FBS, 100 IU/ml penicillin, 100 μg/ml streptomycin at a 37° C. and 5% CO2.
as §1, §2, §3

The structures appear in SMILES notation.

In test [1] (5 mM glucose, 50 μM, 2 hours, percentage of vehicle control), `CCCCCCCC/C=C\CCCCCCCC(=O)NCCO` [OEA, Oleoylethanolamide] registered a GLP-1 secretion of 178±15%. Further, in test [1] (10 mM glucose), the “GLP-1 secretion, dose response” value is “dose-dependently stimulate GLP-1 secretion in similar manner of oleoyl-LPI”. The EC50 was determined as 0.422 µM at human GPR119 and 30.7 µM in test [2].
With `O=S(=O)(NCCNC/C=C/c1ccc(Br)cc1)c1cccc2cnccc12` [H89], in the test with CREB, the “phosphorylation of CREB” value is given as “inhibited”. Moreover, the “oleoyl-LPI induced GLP-1 secretion with inhibitor pre-treatment” value in the test with NCI-H716 cells and in the test with Glutag cells was “observable reduction in GLP-1 secretion” each time.

The record behind these values is US12503426B2, “Synthetic derivatives of oleoyl-lysophosphatidylinositol (oleoyl-LPI) and uses thereof” (LIPOVEXA SRL, priority 2017, dated 2025).
